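Grown in 96-well plates, cells were treated for 48 hours with each compound at five concentrations. Insufficient inhibition: endpoint recorded as highest concentration tested. Here, GI50 denotes the concentration required for 50% inhibition of growth.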 The source made the active and inactive calls. Cut-off read from the data, not from the text of the source: active = GI50 up to about 1.1 µM and inactive = higher.
Assays:
Assay in all cases: NCI-60 cell line screen, 48 h
786-0 = tested on: 786-0
BT-549 = tested on: BT-549
CAKI-1 = tested on: CAKI-1
CCRF-CEM = tested on: CCRF-CEM
HCT-116 = tested on: HCT-116
HL-60 = tested on: HL-60
HOP-62 = tested on: HOP-62
HOP-92 = tested on: HOP-92
K562 = tested on: K562
KM12 = tested on: KM12
LOX IMVI = tested on: LOX IMVI
Malme-3M = tested on: Malme-3M
NCI-H522 = tested on: NCI-H522
OVCAR-8 = tested on: OVCAR-8
SK-MEL-28 = tested on: SK-MEL-28
SK-MEL-2 = tested on: SK-MEL-2
SK-MEL-5 = tested on: SK-MEL-5
SK-OV-3 = tested on: SK-OV-3
SW-620 = tested on: SW-620
UACC-62 = tested on: UACC-62

SMILES | GI50 (786-0) | GI50 (BT-549) | GI50 (CAKI-1) | GI50 (CCRF-CEM) | GI50 (HCT-116) | GI50 (HL-60) | GI50 (HOP-62) | GI50 (HOP-92) | GI50 (K562) | GI50 (KM12) | GI50 (LOX IMVI) | GI50 (Malme-3M) | GI50 (NCI-H522) | GI50 (OVCAR-8) | GI50 (SK-MEL-28) | GI50 (SK-MEL-2) | GI50 (SK-MEL-5) | GI50 (SK-OV-3) | GI50 (SW-620) | GI50 (UACC-62)
N=C(N)N/N=C/c1c(-c2ccc(N)cc2)nc2sccn12 | 23.9 µM (inactive) | 35.5 µM (inactive) | 33.7 µM (inactive) | 26.8 µM (inactive) | 23.3 µM (inactive) | 16.2 µM (inactive) | 26.5 µM (inactive) | > 100 µM (inactive) | 26.1 µM (inactive) | 21.2 µM (inactive) | 32.9 µM (inactive) | 61 µM (inactive) | 26.5 µM (inactive) | 34.5 µM (inactive) | > 100 µM (inactive) | 30.5 µM (inactive) | > 100 µM (inactive) | 24.8 µM (inactive) | 22.8 µM (inactive) | > 100 µM (inactive)
Clc1cc(OCc2nn3c(Cc4ccccc4)nnc3s2)c(Cl)cc1OCc1nn2c(Cc3ccccc3)nnc2s1 | 33.7 µM (inactive) | 20.8 µM (inactive) | > 100 µM (inactive) | 12.3 µM (inactive) | 77.1 µM (inactive) | 68.1 µM (inactive) | 33.3 µM (inactive) | 18.8 µM (inactive) | 4.93 µM (inactive) | > 100 µM (inactive) | > 100 µM (inactive) | > 100 µM (inactive) | > 100 µM (inactive) | 28.6 µM (inactive) | > 100 µM (inactive) | > 100 µM (inactive) | 41.8 µM (inactive) | 25.8 µM (inactive) | > 100 µM (inactive) | > 100 µM (inactive)
CNC(=O)CCCNC(=O)CCCC(=O)N(C)C | > 100 µM (inactive) | > 100 µM (inactive) | > 100 µM (inactive) | > 100 µM (inactive) | > 100 µM (inactive) | > 100 µM (inactive) | > 100 µM (inactive) | > 100 µM (inactive) | > 100 µM (inactive) | > 100 µM (inactive) | > 100 µM (inactive) | > 100 µM (inactive) | > 100 µM (inactive) | > 100 µM (inactive) | > 100 µM (inactive) | > 100 µM (inactive) | > 100 µM (inactive) | > 100 µM (inactive) | 45.5 µM (inactive) | > 100 µM (inactive)
COc1cccc(NC(=O)CC(=O)NN)c1 | > 100 µM (inactive) | > 100 µM (inactive) | > 100 µM (inactive) | > 100 µM (inactive) | > 100 µM (inactive) | > 100 µM (inactive) | > 100 µM (inactive) | > 100 µM (inactive) | > 100 µM (inactive) | > 100 µM (inactive) | > 100 µM (inactive) | > 100 µM (inactive) | > 100 µM (inactive) | > 100 µM (inactive) | > 100 µM (inactive) | > 100 µM (inactive) | > 100 µM (inactive) | > 100 µM (inactive) | > 100 µM (inactive) | > 100 µM (inactive)
CCN(CC)Cc1c(/C=C\c2cc(OC)c(OC)c(OC)c2)ccc(OC)c1O | 3.83 µM (inactive) | 6.01 µM (inactive) | 4.42 µM (inactive) | 6.53 µM (inactive) | 3.33 µM (inactive) | 3.85 µM (inactive) | 5.02 µM (inactive) | 8.87 µM (inactive) | 3.27 µM (inactive) | 1.69 µM (inactive) | 6.24 µM (inactive) | 3.23 µM (inactive) | 1.87 µM (inactive) | 4.1 µM (inactive) | 15 µM (inactive) | 6.62 µM (inactive) | 2.68 µM (inactive) | 2.12 µM (inactive) | 2.77 µM (inactive) | 2.43 µM (inactive)
O=C(O)c1ccc(/C=N/N=C2c3ccccc3-c3ccccc32)cc1 | > 100 µM (inactive) | > 100 µM (inactive) | 38.6 µM (inactive) | 44.1 µM (inactive) | > 100 µM (inactive) | 32.9 µM (inactive) | 54.7 µM (inactive) | 40.6 µM (inactive) | 55.8 µM (inactive) | 35.2 µM (inactive) | > 100 µM (inactive) | 29 µM (inactive) | 60.7 µM (inactive) | 49.8 µM (inactive) | 62.4 µM (inactive) | 27.4 µM (inactive) | 26.5 µM (inactive) | 74.3 µM (inactive) | 36.1 µM (inactive) | 61.8 µM (inactive)
Clc1cccc(/C=N/C23CC4CC(CC(C4)C2)C3)c1Cl | > 10 µM (inactive) | > 10 µM (inactive) | > 10 µM (inactive) | > 10 µM (inactive) | 6.35 µM (inactive) | 6.28 µM (inactive) | > 10 µM (inactive) | > 10 µM (inactive) | > 10 µM (inactive) | > 10 µM (inactive) | > 10 µM (inactive) | > 10 µM (inactive) | > 10 µM (inactive) | > 10 µM (inactive) | > 10 µM (inactive) | > 10 µM (inactive) | > 10 µM (inactive) | > 10 µM (inactive) | > 10 µM (inactive) | > 10 µM (inactive)
Cn1c(N2CCCC2)c(C=O)c(=O)n(C)c1=O | > 100 µM (inactive) | > 100 µM (inactive) | > 100 µM (inactive) | > 100 µM (inactive) | > 100 µM (inactive) | > 100 µM (inactive) | > 100 µM (inactive) | > 100 µM (inactive) | > 100 µM (inactive) | > 100 µM (inactive) | > 100 µM (inactive) | 78.5 µM (inactive) | > 100 µM (inactive) | > 100 µM (inactive) | > 100 µM (inactive) | > 100 µM (inactive) | > 100 µM (inactive) | > 100 µM (inactive) | > 100 µM (inactive) | > 100 µM (inactive)
COC(=O)c1ccc(NCc2cc(O)c3ccccc3c2O)cc1 | 16.1 µM (inactive) | 16.6 µM (inactive) | 6.17 µM (inactive) | 2.86 µM (inactive) | 15.7 µM (inactive) | 3.3 µM (inactive) | 14.4 µM (inactive) | 2.55 µM (inactive) | 2.59 µM (inactive) | 14.8 µM (inactive) | 3.48 µM (inactive) | 2.56 µM (inactive) | 16.1 µM (inactive) | 24.4 µM (inactive) | 5.65 µM (inactive) | 18.2 µM (inactive) | 1.51 µM (inactive) | 16.8 µM (inactive) | 12.9 µM (inactive) | 3.67 µM (inactive)
Cc1[nH]c(-c2ccccc2)c2nc(N(C)C)oc(=O)c12 | > 100 µM (inactive) | > 100 µM (inactive) | 0.212 µM (active) | > 100 µM (inactive) | > 100 µM (inactive) | > 100 µM (inactive) | > 100 µM (inactive) | > 100 µM (inactive) | > 100 µM (inactive) | > 100 µM (inactive) | > 100 µM (inactive) | > 100 µM (inactive) | > 100 µM (inactive) | > 100 µM (inactive) | > 100 µM (inactive) | > 100 µM (inactive) | > 100 µM (inactive) | > 100 µM (inactive) | > 100 µM (inactive) | > 100 µM (inactive)
